Laboratory results: patent US11571378B2, “Skin care composition and method of using the same” (The Procter & Gamble Company, priority 2021, dated 2023)
No end group written: not given here.

Columns and labels:
[1] = tested on: MSMO1 [SEQ ID NO: 3]; experiment: Gene Modulation Assay, MSMO1 expression (qPCR); assay type: cell-based
Description: (§1) This method provides a way to measure the ability of a compound or material to modulate the expression of a target gene such as PPARA [SEQ ID NO: 2] or MSMO1 [SEQ ID NO: 3]. • Cells: tert keratinocytes (tKC)
(§2) BJ Fibroblasts • Plating: Cells are plated the day before treatment. • For tert keratinocytes: 100,000 cells/well in 2 ml volume of medium/well for 12-well plates (e.g., Collagen I coated plates, Corning cat #356500), or 50,000 cells/well in 1 ml volume of medium/well for 24-well plates. • For BJ fibroblasts: 88,000 cells/well in 2 ml volume of medium/well for 12-well plates (e.g., Corning cat #3512), or 44,000 cells/well in 1 ml volume of medium/well for 24-well plates. • Medium: For tert keratinocytes: EpiLife (e.g., Thermo Fisher Scientific cat #MEPI500CA+HKGS (e.g., Thermo Fisher Scientific cat #S-001-5). • For BJ Fibroblasts: EMEM (e.g., ATCC cat #30-2003)+10% FBS (e.g., HyClone cat #SH30071.02).
(§3) Treatments are made in media and aliquoted to dose plates. When it is time to treat cells, all plates of cells are removed from the incubator at the same time. Working with one plate at a time, media is removed and treatment is added, as follows: • Media is decanted from plate of cells. • Inverted plate is blotted briefly on paper towels. • Lid is put back onto plate and plate is moved into biosafety cabinet. • Treatments are transferred from dose plate to plate of cells, one column at a time, using a multichannel pipette. Once all plates have been treated, they are moved into incubator at 37° C., with 5% CO2 and 90% humidity. About 15-30 min before the end of the treatment period, cells from representative wells of each treatment are observed via microscope, then plates are returned to the incubator. When treatment time is complete, all plates are removed from incubator. Media is decanted from each plate, and plates are blotted on paper towels. 350 ul Qiagen Buffer RLT is added to each well to lyse cells, and lysates are transferred to 2 ml Eppendorf tubes and stored at −20° C. until ready for genomics.
(§4) Cell lysates are thawed at 4° C. and then isolated using the Biomek FxP and the RNAdvance Tissue Isolation kit (Beckman Coulter, p/n A32646). The resulting RNA is quantified using the Nandrop 8000 (Nanodrop, ND-8000). cDNA is generated using 500 ng of Total RNA and Applied Biosystems High Capacity cDNA with Reverse Transcription kit (Applied Biosystems p/n 4368814). cDNA, assays, and dilutions of PrimeTime GeneExpression MasterMix (IDT, p/n ? ) are plated onto a Wafergen MyDesign SmartChip (TakaraBio, p/n 640036) using the Wafergen Nanodispenser. The chip is then loaded into the SmartChip cycler and qPCR performed using the following PCR conditions:
(§5) Hold stage: 50° C. for 2 minutes (warm up), then 95° C. for 10 minutes.
(§6) PCR stage (40 cycles): 95° C. for 15 seconds, then 60° C. for 1 minute. Export data in .txt file format for analysis.
(§7) Test compositions and control compositions were prepared as described above in the Gene Modulation Assay and tested accordingly. The pal-KT used in this example is PALESTRINA brand pal-KT from Sederma (France), and the ac-PPYL is SYNIORAGE brand tetrapeptide from BASF Care Creations (New Jersey). P+A refers to the combination of pal-KT (P), and ac-PPYL (A) [SEQ ID NO: 1].
(§8) Synergy Factor is calculated as: […]
(§9) A synergy factor greater than 1.00 with p-value ≤0.05 indicates a statistically significant synergistic effect. Preferred synergy factors are 1.3 or greater.
(§10) In this test, the amino acids from pal-KT were rearranged to form a new dipeptide, pal-TK. Test compositions and control compositions were prepared as described above in the Gene Modulation Assay and tested accordingly. Fold change factor is calculated as.
(§11) [formula] A fold change factor of greater than 1 is desired, and a fold change factor of 1.3 or greater is preferred.

[2] = tested on: PPARA [SEQ ID NO: 2]; experiment: Gene Modulation Assay, PPARA expression (qPCR); assay type: cell-based
Description: as §1, §2, §3, §4, §5, §6, §7, §8, §9, §10, §11

[3] = pal-KT + ac-PPYL relative to pal-TK + ac-PPYL, all peptides at 1 ppm

Substance	Fold change vs. control, Pal-KT ([1]; Pal-KT 1 ppm alone)	Fold change vs. control, Pal-KT ([1]; Pal-KT 7.5 ppm alone)	Fold change vs. control, Pal-KT ([1]; Pal-KT 15 ppm alone)	Fold change factor [1, 3]	Fold change vs. control, Pal-KT ([2]; Pal-KT 1 ppm alone)	Fold change vs. control, Pal-KT ([2]; Pal-KT 7.5 ppm alone)	Fold change vs. control, Pal-KT ([2]; Pal-KT 15 ppm alone)	Fold change factor [2, 3]	Fold change vs. control, Ac-PPYL ([1]; Ac-PPYL 0.0135 ppm alone)	Fold change vs. control, Ac-PPYL ([1]; Ac-PPYL 1 ppm alone)	Fold change vs. control, Ac-PPYL ([1]; Ac-PPYL 13.5 ppm alone)	Fold change vs. control, Ac-PPYL ([1]; Ac-PPYL 40.5 ppm alone)	Fold change vs. control, Ac-PPYL ([2]; Ac-PPYL 0.0135 ppm alone)	Fold change vs. control, Ac-PPYL ([2]; Ac-PPYL 1 ppm alone)	Fold change vs. control, Ac-PPYL ([2]; Ac-PPYL 13.5 ppm alone)	Fold change vs. control, Ac-PPYL ([2]; Ac-PPYL 40.5 ppm alone)
palmitoyl dipeptide-7 [Pal-KT]	4.32	4.69	5.63	greater than 1.3	1.26	1.43	1.59	greater than 1.3	–	–	–	–	–	–	–	–
acetyl tetrapeptide-11 (Ac-PPYL) [acetylated tetrapeptide ac-PPYL, available as SYNIORAGE from BASF Care Creations]	–	–	–	–	–	–	–	–	0.377	0.496	0.510	0.560	0.70	0.69	0.67	0.71
